According to US20260176262A1, “KRAS INHIBITORS, PREPARATION METHOD THEREFOR, AND PHARMACEUTICAL USE THEREOF” (ABBISKO THERAPEUTICS CO., LTD., priority 2021, published 2026):
Where two headings read alike, the source gives them in different places.

Tests used:
KRAS^G12D/cRAF = KRAS^G12D/cRAF (Homo sapiens, UniProt P01116, G12D); test: KRAS G12D/cRAF binding test (Alphalisa); details: His-tagged KRAS G12D + GMPPNP, GST-tagged cRAF
Method: The compound was dissolved in 100% DMSO at a starting concentration of 5 mM and diluted in DMSO with a 3-fold serial dilution method for a total of 8 concentration points. 1 μL of the compound or DMSO at each concentration point was added into 99 μL of the experimental buffer to obtain 10× stock solution.
• 1) 4 μL of the working mixture solution of His-tagged KRAS^G12D and GMPPNP was added to the 384-well plate. • 2) The 10× compound stock solution or 1% DMSO was added to the 384-well plate. • 3) The plate was centrifuged at 1000 rpm for 1 minute. • 4) 4 μL of GST-tagged cRAF solution was added to the 384-well plate. • 5) The plate was centrifuged at 1000 rpm for 1 minute. • 6) The plate was incubated at room temperature for 15 minutes. • 7) 10 μL of detection working solution was added to the 384-well plate. • 8) The plate was centrifuged at 1000 rpm for 1 minute. • 9) The plate was incubated at room temperature for 60 minutes. • 10) The 384-well plate was placed into Envision and assay data was obtained.
(§1) The ratio for each compound concentration was calculated from the signal of the DMSO control group contained in each assay plate and the Alphalisa signal in each compound well. The compound concentration required for inhibitory concentration at 50% (IC50) was determined using a four-parameter logarithmic dose-response equation by testing the concentration of the compound and the value of the ratio. The endpoint value (IC50) of the reference compound was assessed in each experiment as a quality control measure. If the endpoint value is within three times the expected value, the experiment may be considered acceptable.

AGS cell = test: Anti-proliferative 2D CTG assay, AGS cells; type: cell-based; details: Homo sapiens, 72 h, AGS cells, incubated 3 days, CTG, read-out: AGS cell IC50
Method: When the cell confluence was about 80%, the cells were isolated with 0.25% trypsin. Isolated cells were resuspended in 5 mL fresh cell culture medium and centrifuged for cell collection. Meanwhile, the number of cells was also calculated. The cells were then suspended in culture medium of medium concentration. The cells were placed into a 96-well plate with 1000 cells/well for AGS and 1000 cells/well for GP2D. The 96-well plate was placed in an incubator at 37° C. and incubated overnight.
1.2 Day 1 Compound Treatment From the 10 mM stock solution, with a ratio of 1:5, 10-point serial dilutions were performed. The 10× medium containing the compound was transferred into corresponding wells of the 96 wells. The final maximum compound concentration was […] and the final DMSO concentration was 0.1%. The 96-well plate was placed in a 37° C. incubator, the AGS cells were incubated for 3 days, and the GP2D cells were incubated for 4 days.
50 μL/well of detection reagent (CTG) was added to the AGS cells, and the signal was read in an Envision machine.
as §1, with “The percent inhibition (%) at” for “The ratio for”, “signal in” for “signal of”, “the HPE and ZPE” for “the DMSO”, “control wells and the fluorescence signal in the individual compound wells included” for “control group contained”, “assay plate. […]” for “assay plate and the Alphalisa signal in each compound well.”, “the inhibition percentage value.” for “the value of the ratio.”

Sequence of KRAS^G12D/cRAF (P01116 1-188 isoform P01116-2 G12D): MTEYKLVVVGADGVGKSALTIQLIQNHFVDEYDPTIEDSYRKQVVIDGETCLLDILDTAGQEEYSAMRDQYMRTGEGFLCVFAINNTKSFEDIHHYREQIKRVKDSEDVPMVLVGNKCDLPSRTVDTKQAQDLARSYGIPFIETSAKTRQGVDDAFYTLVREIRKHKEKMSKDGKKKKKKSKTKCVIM

SMILES	IC50 (KRAS^G12D/cRAF; class symbols) [nM]	IC50 (AGS cell; class symbols) [nM]	IC50 (KRAS^G12D/cRAF; numeric values) [nM]	IC50 (AGS cell; numeric values) [nM]
C#Cc1c(F)ccc2cc(O)cc(-c3ncc4c(N5CC6CCC(C#C)(C5)N6)nc(OC[C@@]56CCCN5C[C@H](F)C6)nc4c3F)c12 (stereo partly drawn) [Example 6, 5-ethynyl-4-(4-(1-ethynyl-3,8-diazabicyclo[3.2.1]octan-3-yl)-8-fluoro-2-(((2R,7aS)-2-fluorotetrahydro-1H-pyrrolizin-7a(5H)-yl)methoxy)pyrido[4,3-d]pyrimidin-7-yl)-6-fluoronaphthalen-2-ol]	50 to 500	< 50	–	–
C#Cc1c(F)ccc2cc(O)cc(-c3ncc4c(N5CC6CCC(/C=C/F)(C5)N6)nc(OC[C@@]56CCCN5C[C@H](F)C6)nc4c3F)c12 (stereo partly drawn) [Example 28, 5-ethynyl-6-fluoro-4-(8-fluoro-2-(((2R,7aS)-2-fluorotetrahydro-1H-pyrrolizin-7a(5H)-yl)methoxy)-4-(1-((E)-2-fluorovinyl)-3,8-diazabicyclo[3.2.1]octan-3-yl)pyrido[4,3-d]pyrimidin-7-yl) naphthalen-2-ol]	50 to 500	< 50	–	–
C#Cc1c(F)ccc2cc(O)cc(-c3ncc4c(N5CC6CCC(CSC)(C5)N6)nc(OC[C@@]56CCCN5C[C@H](F)C6)nc4c3F)c12 (stereo partly drawn) [Example 10, 5-ethynyl-6-fluoro-4-(8-fluoro-2-(((2R,7aS)-2-fluorotetrahydro-1H-pyrrolizin-7a(5H)-yl)methoxy)-4-(1-((methylthio)methyl)-3,8-diazabicyclo [3.2.1]octan-3-yl)pyrido[4,3-d]pyrimidin-7-yl)naphthalen-2-ol]	> 500	50 to 500	–	–
C#Cc1c(F)ccc2cc(O)cc(-c3ncc4c(N5C[C@@H]6CC[C@](/C=C/F)(C5)N6)nc(OC[C@@]56CCCN5C[C@H](F)C6)nc4c3F)c12 [Example 62, 5-ethynyl-6-fluoro-4-(8-fluoro-2-(((2R,7aS)-2-fluorotetrahydro-1H-pyrrolizin-7a(5H)-yl)methoxy)-4-((1S,5S)-1-((E)-2-fluorovinyl)-3,8-diazabicyclo[3.2.1]octan-3-yl)pyrido[4,3-d]pyrimidin-7-yl)naphthalen-2-ol]	–	–	18	27
[2H]C([2H])([2H])OCC12CCC(CN(c3nc(OC[C@@]45CCCN4C[C@H](F)C5)nc4c(F)c(-c5cc(O)cc6cc(C)c(F)c(C#C)c56)ncc34)C1)N2 (stereo partly drawn) [Example 17, 5-ethynyl-6-fluoro-4-(8-fluoro-2-(((2R,7aS)-2-fluorotetrahydro-1H-pyrrolizin-7a(5H)-yl)methoxy)-4-(1-((methoxy-d3)methyl)-3,8-diazabicyclo[3.2.1]octan-3-yl)pyrido[4,3-d]pyrimidin-7-yl)-7-methylnaphthalen-2-ol]	–	> 500	–	–
C#Cc1c(F)ccc2cc(O)cc(-c3ncc4c(N5C[C@H]6CC[C@@](/C=C\F)(C5)N6)nc(OC[C@@]56CCCN5C[C@H](F)C6)nc4c3F)c12 [Example 59, 5-ethynyl-6-fluoro-4-(8-fluoro-2-(((2R,7aS)-2-fluorotetrahydro-1H-pyrrolizin-7a(5H)-yl)methoxy)-4-((1R,5R)-1-((Z)-2-fluorovinyl)-3,8-diazabicyclo[3.2.1]octan-3-yl)pyrido[4,3-d]pyrimidin-7-yl)naphthalen-2-ol]	–	–	15	13
[2H]C([2H])([2H])OCC12CCC(CN(c3nc(OC[C@@]45CCCN4C[C@H](F)C5)nc4c(F)c(-c5cc(O)cc6ccc(F)c(C#C)c56)nc(OC)c34)C1)N2 (stereo partly drawn) [Example 36, 5-ethynyl-6-fluoro-4-(8-fluoro-2-(((2R,7aS)-2-fluorotetrahydro-1H-pyrrolizin-7a(5H)-yl)methoxy)-5-methoxy-4-(1-((methoxy-d3)methyl)-3,8-diazabicyclo[3.2.1]octan-3-yl)pyrido[4,3-d]pyrimidin-7-yl)naphthalen-2-ol]	50 to 500	50 to 500	–	–
[2H]C([2H])([2H])OC[C@]12CC[C@H](CN(c3nc(OC[C@@]45CCCN4C[C@H](F)C5)nc4c(F)c(-c5cc(O)cc6ccc(F)c(C#C)c56)nc(OC)c34)C1)N2 [Example 49, 5-ethynyl-6-fluoro-4-(8-fluoro-2-(((2R,7aS)-2-fluorotetrahydro-1H-pyrrolizin-7a(5H)-yl)methoxy)-5-methoxy-4-((1S,5R)-1-((methoxy-d3)methyl)-3,8-diazabicyclo[3.2.1]octan-3-yl)pyrido[4,3-d]pyrimidin-7-yl)naphthalen-2-ol]	–	–	262	288
C#Cc1c(F)ccc2cc(O)cc(-c3ncc4c(N5CC6CCC(CC)(C5)N6)nc(OC[C@@]56CCCN5C[C@H](F)C6)nc4c3F)c12 (stereo partly drawn) [Example 19, 4-(4-(1-ethyl-3,8-diazabicyclo[3.2.1]octan-3-yl)-8-fluoro-2-(((2R,7aS)-2-fluorotetrahydro-1H -pyrrolizin-7a(5H)-yl)methoxy)pyrido[4,3-d]pyrimidin-7-yl)-5-ethynyl-6-fluoronaphthalen-2-ol]	50 to 500	< 50	–	–
C#Cc1c(F)ccc2cc(O)cc(-c3ncc4c(N5C[C@H]6CC[C@@](COC)(C5)N6)nc(OC[C@@]56CCCN5C[C@H](F)C6)nc4c3F)c12 [Example 45, 5-ethynyl-6-fluoro-4-(8-fluoro-2-(((2R,7aS)-2-fluorotetrahydro-1H-pyrrolizin-7a(5H)-yl)methoxy)-4-((1S,5R)-1-(methoxymethyl)-3,8-diazabicyclo[3.2.1]octan-3-yl)pyrido[4,3-d]pyrimidin-7-yl)naphthalen-2-ol]	> 500	–	–	–
C#Cc1c(F)ccc2cc(O)cc(-c3ncc4c(N5CC6CCC(CN(C)C)(C5)N6)nc(OC[C@@]56CCCN5C[C@H](F)C6)nc4c3F)c12 (stereo partly drawn) [Example 24, 4-(4-(1-((dimethylamino)methyl)-3,8-diazabicyclo[3.2.1]octan-3-yl)-8-fluoro-2-(((2R,7aS)-2-fluorotetrahydro-1H-pyrrolizin-7a(5H)-yl)methoxy)pyrido[4,3-d]pyrimidin-7-yl)-5-ethynyl-6-fluoronaphthalen-2-ol]	50 to 500	< 50	–	–
C#Cc1c(F)ccc2cc(O)cc(-c3ncc4c(N5CC6CCC(CCF)(C5)N6)nc(OC[C@@]56CCCN5C[C@H](F)C6)nc4c3F)c12 (stereo partly drawn) [Example 8, 5-ethynyl-6-fluoro-4-(8-fluoro-4-(1-(2-fluoroethyl)-3,8-diazabicyclo[3.2.1]octan-3-yl)-2-(((2R,7aS)-2-fluorotetrahydro-1H-pyrrolizin-7a(5H)-yl)methoxy)pyrido[4,3-d]pyrimidin-7-yl) naphthalen-2-ol]	< 50	< 50	–	–
[2H]C12CCC(COC([2H])([2H])[2H])(CN(c3nc(OC[C@@]45CCCN4C[C@H](F)C5)nc4c(F)c(-c5cc(O)cc6ccc(F)c(C#C)c56)ncc34)C1)N2 (stereo partly drawn) [Example 3, 5-ethynyl-6-fluoro-4-(8-fluoro-2-(((2R,7aS)-2-fluorotetrahydro-1H-pyrrolizin-7a(5H)-yl)methoxy)-4-(1-((methoxy-d3)methyl)-3,8-diazabicyclo [3.2.1]octan-3-yl-5-d)pyrido [4,3-d]pyrimidin-7-yl)naphthalen-2-ol]	–	< 50	–	–
C#Cc1c(F)ccc2cc(O)cc(-c3ncc4c(N5CC6CCC(C(C)O)(C5)N6)nc(OC[C@@]56CCCN5C[C@H](F)C6)nc4c3F)c12 (stereo partly drawn) [Example 13, 5-ethynyl-6-fluoro-4-(8-fluoro-2-(((2R,7aS)-2-fluorotetrahydro-1H-pyrrolizin-7a(5H)-yl)methoxy)-4-(1-(1-hydroxyethyl)-3,8-diazabicyclo[3.2.1]octan-3-yl)pyrido[4,3-d]pyrimidin-7-yl) naphthalen-2-ol]	–	50 to 500	–	–
C#Cc1c(F)ccc2cc(O)cc(-c3ncc4c(N5C[C@@H]6CC[C@](CCF)(C5)N6)nc(OC[C@@]56CCCN5C[C@H](F)C6)nc4c3F)c12 [Example 56, 5-ethynyl-6-fluoro-4-(8-fluoro-4-((1S,5S)-1-(2-fluoroethyl)-3,8-diazabicyclo[3.2.1]octan-3-yl)-2-(((2R,7aS)-2-fluorotetrahydro-1H-pyrrolizin-7a(5H)-yl)methoxy)pyrido[4,3-d]pyrimidin-7-yl)naphthalen-2-ol]	–	< 50	–	–
